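Five concentrations, 48 hours, 96-well plates. GI50 = concentration required for 50% inhibition of growth.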 The source made the active and inactive calls. No stated cut-off is given here; in the data, active = GI50 up to about 1.1 µM and inactive = higher.
What was measured:
Assay in all cases: NCI tumour cell line growth inhibition, 48 h
HL-60 = tested on: HL-60
MCF7 = tested on: MCF7
SK-MEL-28 = tested on: SK-MEL-28
RPMI-8226 = tested on: RPMI-8226
A498 = tested on: A498
HT-29 = tested on: HT-29
786-0 = tested on: 786-0
KM-20L2 = tested on: KM-20L2
SW-620 = tested on: SW-620
SK-OV-3 = tested on: SK-OV-3
SK-MEL-2 = tested on: SK-MEL-2
HOP-62 = tested on: HOP-62
HCT-116 = tested on: HCT-116
EKVX = tested on: EKVX
HCT-15 = tested on: HCT-15
UACC-62 = tested on: UACC-62
T47D = tested on: T47D
MDA-MB-231 = tested on: MDA-MB-231
OVCAR-4 = tested on: OVCAR-4
K562 = tested on: K562

SMILES | GI50 (HL-60) | GI50 (MCF7) | GI50 (SK-MEL-28) | GI50 (RPMI-8226) | GI50 (A498) | GI50 (HT-29) | GI50 (786-0) | GI50 (KM-20L2) | GI50 (SW-620) | GI50 (SK-OV-3) | GI50 (SK-MEL-2) | GI50 (HOP-62) | GI50 (HCT-116) | GI50 (EKVX) | GI50 (HCT-15) [µM] | GI50 (UACC-62) | GI50 (T47D) | GI50 (MDA-MB-231) | GI50 (OVCAR-4) | GI50 (K562)
CN1N=C(N)c2cn(C3OC(COP(=O)(O)O)C(O)C3O)c3ncnc1c23 (configuration not stated) | 1.65 µM (inactive) | 1.65 µM (inactive) | 194 µM (inactive) | 282 µM (inactive) | 33.7 µM (inactive) | 17.3 µM (inactive) | 20.5 µM (inactive) | 58.5 µM (inactive) | 91.8 µM (inactive) | 0.822 µM (active) | 8.26 µM (inactive) | 23.5 µM (inactive) | 41.8 µM (inactive) | 7.52 µM (inactive) | 19.7 | 28.4 µM (inactive) | 0.5 µM (active) | 10.9 µM (inactive) | 5.86 µM (inactive) | 385 µM (inactive)
CNc1ccc(/C=C2\C=Cc3ccccc32)cc1 | 4.45 µM (inactive) | – | 88.5 µM (inactive) | 54.3 µM (inactive) | 28.1 µM (inactive) | 18.7 µM (inactive) | 31.5 µM (inactive) | 19.1 µM (inactive) | 33.1 µM (inactive) | 26.5 µM (inactive) | 18.8 µM (inactive) | 18.9 µM (inactive) | 33.1 µM (inactive) | 20.1 µM (inactive) | 20.9 | 20.1 µM (inactive) | – | – | 26.8 µM (inactive) | 32 µM (inactive)
NNC(=S)N/N=C(\c1nc2ccc(Cl)cc2nc1O)C(O)c1cccc([N+](=O)[O-])c1 (configuration not stated) | > 52.2 µM (inactive) | – | > 49 µM (inactive) | > 43.3 µM (inactive) | > 100 µM (inactive) | > 36.1 µM (inactive) | > 43 µM (inactive) | > 100 µM (inactive) | 20.9 µM (inactive) | > 100 µM (inactive) | > 100 µM (inactive) | > 38.9 µM (inactive) | > 31.6 µM (inactive) | > 100 µM (inactive) | > 42.1 | > 100 µM (inactive) | – | – | > 72.1 µM (inactive) | > 45.3 µM (inactive)
CN(C)C(=S)/N=c1\ss/c(=N\C(=S)N(C)C)n1-c1ccc(Cl)cc1 | > 100 µM (inactive) | – | > 100 µM (inactive) | > 100 µM (inactive) | > 100 µM (inactive) | > 100 µM (inactive) | > 100 µM (inactive) | > 100 µM (inactive) | > 100 µM (inactive) | > 100 µM (inactive) | > 100 µM (inactive) | > 100 µM (inactive) | > 100 µM (inactive) | > 100 µM (inactive) | > 100 | > 100 µM (inactive) | – | – | > 10 µM (inactive) | > 100 µM (inactive)
N#CCC(=O)N/N=C(\C(=O)Nc1ccc(Cl)c(Cl)c1)C1CN(c2ccccc2)N=C1N (configuration not stated) | > 100 µM (inactive) | – | > 100 µM (inactive) | > 100 µM (inactive) | > 100 µM (inactive) | > 100 µM (inactive) | > 100 µM (inactive) | > 100 µM (inactive) | – | > 100 µM (inactive) | > 100 µM (inactive) | > 100 µM (inactive) | > 100 µM (inactive) | > 100 µM (inactive) | > 100 | > 100 µM (inactive) | – | – | > 100 µM (inactive) | > 100 µM (inactive)
O=C1c2cc([N+](=O)[O-])cc3cc([N+](=O)[O-])cc(c23)C(=O)N1CCCNCCNCCCN1C(=O)c2cc([N+](=O)[O-])cc3cc([N+](=O)[O-])cc(c23)C1=O | 0.0166 µM (active) | 0.0695 µM (active) | 0.233 µM (active) | < 0.0114 µM (active) | 0.769 µM (active) | 0.0201 µM (active) | 0.0879 µM (active) | 0.129 µM (active) | 0.073 µM (active) | 1.79 µM (inactive) | 0.124 µM (active) | 0.185 µM (active) | 0.0102 µM (active) | 1.05 µM (active) | 0.117 | 0.302 µM (active) | 0.587 µM (active) | 0.414 µM (active) | 0.178 µM (active) | < 0.0167 µM (active)
O=CC[C@H]1CCc2ccccc2C12CCC(=O)CC2 | 23.7 µM (inactive) | – | – | 35.4 µM (inactive) | > 100 µM (inactive) | 47.9 µM (inactive) | > 100 µM (inactive) | 22.1 µM (inactive) | 80.2 µM (inactive) | > 100 µM (inactive) | > 100 µM (inactive) | > 100 µM (inactive) | 39.3 µM (inactive) | – | 80.4 | 92 µM (inactive) | – | – | > 100 µM (inactive) | 28.2 µM (inactive)
O=C1C2C(C(=O)N1c1ccccc1)C1c3ccccc3C2C2C(=O)N(c3ccccc3)C(=O)C21 (configuration not stated) | 2.9 µM (inactive) | – | 26.2 µM (inactive) | 4.39 µM (inactive) | 6.71 µM (inactive) | 26.6 µM (inactive) | 3.89 µM (inactive) | 18.2 µM (inactive) | 6.12 µM (inactive) | 8.22 µM (inactive) | 2.54 µM (inactive) | – | 3.12 µM (inactive) | > 100 µM (inactive) | 3.43 | 6.78 µM (inactive) | – | – | 22.8 µM (inactive) | 3.42 µM (inactive)
CC1(C)Oc2ccccc2N2O[C@@H]3C(=O)N(c4ccccc4)C(=O)[C@@H]3C21c1ccccc1 (some centres not stated) | > 10 µM (inactive) | – | 29.2 µM (inactive) | 37.8 µM (inactive) | 20.8 µM (inactive) | 29 µM (inactive) | 16.6 µM (inactive) | 51.4 µM (inactive) | 34.4 µM (inactive) | 22.1 µM (inactive) | 23.1 µM (inactive) | 16.8 µM (inactive) | 20.8 µM (inactive) | 56.1 µM (inactive) | – | 33.1 µM (inactive) | – | – | 17.9 µM (inactive) | 37.4 µM (inactive)
CC1OC(=O)C2CC3CCCCC3C(/C=C/C3CCCC(C)N3C)C12 (configuration not stated) | > 100 µM (inactive) | 90.8 µM (inactive) | > 100 µM (inactive) | > 100 µM (inactive) | > 100 µM (inactive) | > 100 µM (inactive) | > 100 µM (inactive) | 79.8 µM (inactive) | > 100 µM (inactive) | > 100 µM (inactive) | 83.2 µM (inactive) | > 100 µM (inactive) | > 100 µM (inactive) | > 100 µM (inactive) | > 100 | > 100 µM (inactive) | > 100 µM (inactive) | > 100 µM (inactive) | > 100 µM (inactive) | > 100 µM (inactive)
CCOC(=O)c1csc(CCCCCCc2nc(C(=O)OCC)cs2)n1 | > 48.3 µM (inactive) | – | > 38.3 µM (inactive) | > 48.8 µM (inactive) | > 100 µM (inactive) | > 70 µM (inactive) | 33.2 µM (inactive) | > 100 µM (inactive) | > 41.7 µM (inactive) | > 65.5 µM (inactive) | 97.5 µM (inactive) | > 57.1 µM (inactive) | 35.9 µM (inactive) | > 86.7 µM (inactive) | > 60.5 | > 83.8 µM (inactive) | – | – | > 100 µM (inactive) | > 40.1 µM (inactive)
O=C1C2=C(c3ccccc31)C(c1ccccc1Cl)NC(S)=N2 (configuration not stated) | 34 µM (inactive) | – | 55.5 µM (inactive) | 37.4 µM (inactive) | 61.8 µM (inactive) | 51.9 µM (inactive) | > 100 µM (inactive) | 74.3 µM (inactive) | 74.5 µM (inactive) | > 100 µM (inactive) | 29.1 µM (inactive) | > 100 µM (inactive) | 44.9 µM (inactive) | > 100 µM (inactive) | 59.2 | 34.6 µM (inactive) | – | – | 35.6 µM (inactive) | 49.2 µM (inactive)
CCCCCCCCCCCC[S+](C)C | 3.01 µM (inactive) | 9.02 µM (inactive) | 10.5 µM (inactive) | 3.41 µM (inactive) | 10.7 µM (inactive) | 3.41 µM (inactive) | 1.69 µM (inactive) | 5.11 µM (inactive) | 9.23 µM (inactive) | 8.49 µM (inactive) | 5.02 µM (inactive) | 0.665 µM (active) | 6.22 µM (inactive) | 4.83 µM (inactive) | 18.5 | 6.4 µM (inactive) | 0.516 µM (active) | 0.0124 µM (active) | 6.07 µM (inactive) | 3.48 µM (inactive)
C=CCn1c2c(sc1=S)C(S)NC=N2 (configuration not stated) | > 100 µM (inactive) | – | > 100 µM (inactive) | 38.5 µM (inactive) | 30.8 µM (inactive) | > 100 µM (inactive) | > 100 µM (inactive) | > 100 µM (inactive) | > 100 µM (inactive) | > 100 µM (inactive) | > 100 µM (inactive) | 39 µM (inactive) | 77.3 µM (inactive) | 49.5 µM (inactive) | > 100 | 27.5 µM (inactive) | – | – | > 100 µM (inactive) | 73.5 µM (inactive)
C=C1C(=O)OC2/C=C(\C=O)CC/C=C(\C)C(O)C[C@@H]12 (some centres not stated) | 2.86 µM (inactive) | – | 4.42 µM (inactive) | 1.95 µM (inactive) | 10.2 µM (inactive) | 3.08 µM (inactive) | 2.85 µM (inactive) | 9.25 µM (inactive) | 2.72 µM (inactive) | 21.3 µM (inactive) | 10.5 µM (inactive) | 28.1 µM (inactive) | 1.68 µM (inactive) | 15.6 µM (inactive) | 3.65 | 5.87 µM (inactive) | – | – | 14.1 µM (inactive) | 3.33 µM (inactive)

Reference: ChEMBL document CHEMBL1201862, “PubChem BioAssay data set” (2004)
